Where two headings read alike, the source gives them in different places.
Key:
[1] = biological target: T1, steroid sulphatase (Steryl Sulphatase EC 3.1.6.2) in MCF-7 cells (Homo sapiens, UniProt P08842); experiment: Inhibition of Steroid Sulphatase Activity in MCF-7 cells (intact MCF-7 human breast cancer cells, [6,7-^3 H]oestrone-3-sulphate substrate); type: cell-based; conditions: for Steroid Sulphatase Activity in MCF-7 cells in the presence of oestrone-3-sulphonates: 10 μM, mean ± 1 S.D. n = 3, control 80.1 ± 3.3 (E1 -3-MeS: control 46.5 ± 2.3), *p ≤ 0.05 (E1 -3-BuS), **p ≤ 0.01 (EtS, CamS, MeS), E1 -3-MePhS: mean of 2 estimates, control 71.3; for inhibition at 10 µM: MCF7, Table II, inhibition over control incubations, read-out: % reduction over control (% inhibition), oestrone-3-sulphonates
T1 construct: intact MCF-7 human breast cancer cells; endogenous in cells; host or cells: MCF-7 human breast cancer cells
T1 sequence (P08842 22-583): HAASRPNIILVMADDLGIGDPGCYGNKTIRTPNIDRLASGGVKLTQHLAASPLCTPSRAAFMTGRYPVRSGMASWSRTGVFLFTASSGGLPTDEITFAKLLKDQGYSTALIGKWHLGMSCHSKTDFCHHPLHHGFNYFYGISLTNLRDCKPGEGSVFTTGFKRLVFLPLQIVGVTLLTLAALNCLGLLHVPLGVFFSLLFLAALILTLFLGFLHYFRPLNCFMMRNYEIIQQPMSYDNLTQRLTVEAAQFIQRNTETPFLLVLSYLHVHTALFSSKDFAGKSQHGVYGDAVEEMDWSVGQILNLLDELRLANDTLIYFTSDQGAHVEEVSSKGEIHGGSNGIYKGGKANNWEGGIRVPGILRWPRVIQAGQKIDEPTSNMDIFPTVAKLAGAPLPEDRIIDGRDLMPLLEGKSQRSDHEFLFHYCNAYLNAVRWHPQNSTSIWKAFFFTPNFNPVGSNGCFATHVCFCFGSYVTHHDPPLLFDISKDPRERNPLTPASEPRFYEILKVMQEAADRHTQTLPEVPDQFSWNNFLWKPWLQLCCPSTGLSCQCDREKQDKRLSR

[2] = biological target: T1, steroid sulphatase (Steryl Sulphatase EC 3.1.6.2) in MCF-7 cells; experiment: as above; type: cell-based
Description: Steroid sulphatase is defined as: Steryl Sulphatase EC 3.1.6.2.
Steroid sulphatase activity was measured in vitro using intact MCF-7 human breast cancer cells. This hormone dependent cell line is widely used to study the control of human breast cancer cell growth. […] Up to 30 replicate 25 cm^2 tissue culture flasks were seeded with approximately 1×10^5 cells/flask using the above medium. Cells were grown to 80% confluency and medium was changed every third day.
Intact monolayers of MCF-7 cells in triplicate 25 cm^2 tissue culture flasks were washed with Earle's Balanced Salt Solution (EBSS from ICN Flow, High Wycombe, U.K.) and incubated for […] at 37° C. with 5 pmol (7×10^5 dpm) [6,7-^3 H]oestrone-3-sulphate (specific activity 60 Ci/mmol from New England Nuclear, Boston, Mass., U.S.A.) in serum-free MEM (2.5 ml) together with 10 μM of each of four oestrone-3-phosphonates:
After incubation each flask was cooled and the medium (1 ml) was pipetted into separate tubes containing [^14 C]oestrone (7×10^3 dpm) (specific activity […] from Amersham International Radiochemical Centre, Amersham, U.K.). The mixture was shaken thoroughly for 30 seconds with toluene (5 ml). […] A portion (2 ml) of the organic phase was removed, evaporated and the ^3 H and ^14 C content of the residue determined by scintillation spectrometry. The mass of oestrone-3-sulphate hydrolysed was calculated from the ^3 H counts obtained (corrected for the volumes of the medium and organic phase used, and for recovery of [^14 C]oestrone added) and the specific activity of the substrate. […] The number of cell nuclei per flask was determined using a Coulter Counter after treating the cell monolayers with Zaponin.
Results are expressed as the mean ±1 S.D. of the total product (oestrone+oestradiol) formed during the incubation period (20 hours) calculated for 10^6 cells and as a percentage reduction (inhibition) over incubations containing no oestrone-3-phosphonate for values showing statistical significance. […]

[3] = biological target: T2, steroid sulphatase in placental microsomes (Homo sapiens, UniProt P08842); experiment: Inhibition of Steroid Sulphatase Activity in Placental Microsomes ([6,7-^3 H]oestrone-3-sulphate substrate); type: biochemical; conditions: 20 μM oestrone-3-sulphate, 100 μg/ml protein, 20 minutes, 37° C., calculated IC50
T2 construct: Sulphatase-positive human placenta from normal term pregnancies; from tissue; host or cells: human term placenta (Obstetric Ward, St. Mary's Hospital, London), 2000 g supernatant of the homogenate
T2 sequence (P08842 22-583): T1 sequence (P08842 22-583)
Description: Sulphatase-positive human placenta from normal term pregnancies (Obstetric Ward, St. Mary's Hospital, London) were thoroughly minced with scissors and washed once with cold phosphate buffer (pH 7.4, 50 mM) then re-suspended in cold phosphate buffer (5 ml/g tissue). Homogenisation was accomplished with an Ultra-Turrax homogeniser, using three 10 second bursts separated by 2 minute cooling periods in ice. Nuclei and cell debris were removed by centrifuging (4° C.) at 2000 g for 30 minutes and portions (2 ml) of the supernatent were stored at -20° C. The protein concentration of the supernatents was determined by the method of Bradford (Anal. Biochem., 72, 248-254 (1976)).
Incubations (1 ml) were carried out using a protein concentration of 100 μg/ml, substrate concentration of 20 μM [6,7-^3 H]oestrone-3-sulphate (specific activity 60 Ci/mmol from New England Nuclear, Boston, Mass., U.S.A.) and an incubation time of 20 minutes at 37° C. The following oestrone-3-phosphonates were added to separate samples at a range of concentrations individually adjusted to span the 50% inhibition level:
After incubation each sample was cooled and the medium (1 ml) was pipetted into separate tubes containing [^14 C]oestrone (7×10^3 dpm) (specific activity […] from Amersham International Radiochemical Centre, Amersham, U.K.). The mixture was shaken thoroughly for 30 seconds with toluene (5 ml). […] A portion (2 ml) of the organic phase was removed, evaporated and the ^3 H and ^14 C content of the residue determined by scintillation spectrometry. The mass of oestrone-3-sulphate hydrolysed was calculated from the ^3 H counts obtained (corrected for the volumes of medium and organic phase used, and for recovery of [^14 C]oestrone added) and the specific activity of substrate.
Results for steroid sulphatase activity are expressed in Table III as calculated IC50 values (i.e. the concentration of oestrone-3-phosphonate which produced 50% inhibition in relation to control). […]

[4] = Table IV, read-out: Steroid Sulphatase Activity in placental microsomes in the presence of oestrone-3-sulphonates (IC50)

Structure (SMILES)	Steroid Sulphatase Activity in MCF-7 cells in the presence of oestrone-3-sulphonates [1]	inhibition at 10 µM [1]	other results
CCCCS(=O)(=O)Oc1ccc2c(c1)CC[C@@H]1[C@@H]2CC[C@]2(C)C(=O)CC[C@@H]12 [E1-3-BuS, oestrone-3-n-butylsulphonate]	66.8 ± 3.3 fmol/20 hr/10^6 cells	16.6%	–
CC1(C)C2CCC1(CS(=O)(=O)Oc1ccc3c(c1)CC[C@@H]1[C@@H]3CC[C@]3(C)C(=O)CC[C@@H]13)C(=O)C2 (stereo partly drawn) [E1-3-CamS, oestrone-3-camphorylsulphonate]	62.7 ± 1.8 fmol/20 hr/10^6 cells	21.7%	–
CCS(=O)(=O)Oc1ccc2c(c1)CC[C@@H]1[C@@H]2CC[C@]2(C)C(=O)CC[C@@H]12 [E1-3-EtS, oestrone-3-ethylsulphonate]	58.4 ± 1.9 fmol/20 hr/10^6 cells	27.1%	–
C[C@]12CC[C@@H]3c4ccc(O[PH](=O)O)cc4CC[C@H]3[C@@H]1CCC2=O [E1-3-HP, oestrone-3-hydrogen-phosphonate]	–	–	inhibition at 10 µM ([2]; MCF7, Table I, inhibition over incubations containing no oestrone-3-phosphonate, read-out: % reduction over control (% inhibition), oestrone-3-phosphonates): 80.1%; IC50 ([3]; Table III, read-out: Steroid Sulphatase Activity in placental microsomes in the presence of oestrone-3-phosphonates (IC50)): 5000 µM
Cc1ccc(S(=O)(=O)Oc2ccc3c(c2)CC[C@@H]2[C@@H]3CC[C@]3(C)C(=O)CC[C@@H]23)cc1 [E1-3-MePhS, oestrone-3-p-toluenesulphonate]	–	90.5%	IC50 [3, 4]: 130 µM
C[C@]12CC[C@@H]3c4ccc(OS(C)(=O)=O)cc4CC[C@H]3[C@@H]1CCC2=O [E1-3-MeS, oestrone-3-methylsulphonate]	21.3 ± 3.5 fmol/20 hr/10^6 cells	54.2%	IC50 [3, 4]: 205 µM
C[C@]12CC[C@@H]3c4ccc(OP(=O)(O)c5ccccc5)cc4CC[C@H]3[C@@H]1CCC2=O [E1-3-PhP, oestrone-3-phenylphosphonate]	–	–	% reduction over control (% inhibition), oestrone-3-phosphonates ([2]; 10 μM, Table I, inhibition over incubations containing no oestrone-3-phosphonate): 70.3%; Steroid Sulphatase Activity in MCF-7 cells in the presence of oestrone-3-phosphonates ([2]; 10 μM, mean ± 1 S.D. n = 3, control 46.5 ± 2.3, ***p ≤ 0.001, E1 -3-HP: mean of 2 estimates, control 71.3): 13.8 ± 0.7 fmol/20 hr/10^6 cells
